Reference: PubChem BioAssay (NCI)
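Compound exposure: 48 hours, 5 concentrations, 96-well plates. TGI: concentration producing complete growth inhibition.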

Legend:
Experiment in all cases: inhibition of tumour cell growth, NCI panel, 48 h
[1] = tested on: NCI/ADR-RES ovarian
[2] = tested on: SF-295 CNS
[3] = tested on: SW-620 colon
[4] = tested on: IGROV1 ovarian
[5] = tested on: MDA-MB-231 breast
[6] = tested on: SN12C renal
[7] = tested on: HL-60(TB) leukemia
[8] = tested on: U251 CNS
[9] = tested on: ACHN renal
[10] = tested on: HT29 colon
[11] = tested on: MDA-MB-435
[12] = tested on: OVCAR-4 ovarian
[13] = tested on: MALME-3M melanoma
[14] = tested on: RPMI-8226 leukemia
[15] = tested on: NCI-H23 lung
[16] = tested on: HCT-116 colon
[17] = tested on: HCC-2998 colon
[18] = tested on: COLO 205 colon
[19] = tested on: SK-MEL-5 melanoma
[20] = tested on: MDA-N
[21] = tested on: SF-268 CNS
[22] = tested on: HS 578T breast
[23] = tested on: MOLT-4 leukemia
[24] = tested on: UACC-257 melanoma
[25] = tested on: SNB-19 CNS
[26] = tested on: BT-549 breast
[27] = tested on: SF-539 CNS
[28] = tested on: K-562 leukemia
[29] = tested on: UACC-62 melanoma
[30] = tested on: SK-MEL-28 melanoma
[31] = tested on: EKVX NSCLC
[32] = tested on: A498 renal
[33] = tested on: SK-OV-3 ovarian
[34] = tested on: KM12 colon
[35] = tested on: OVCAR-3 ovarian
[36] = tested on: 786-0 renal
[37] = tested on: MCF7 breast
[38] = tested on: SK-MEL-2 melanoma
[39] = tested on: HOP-92 NSCLC
[40] = tested on: OVCAR-5 ovarian
[41] = tested on: DU-145 prostate
[42] = tested on: M14 melanoma
[43] = tested on: PC-3 prostate
[44] = tested on: LOX IMVI melanoma
[45] = tested on: CCRF-CEM leukemia
[46] = tested on: CAKI-1 renal
[47] = tested on: TK-10 renal
[48] = tested on: NCI-H460 lung
[49] = tested on: A549 NSCLC
[50] = tested on: SNB-75 CNS
[51] = tested on: T-47D breast
[52] = tested on: OVCAR-8 ovarian
[53] = tested on: HOP-62 NSCLC
[54] = tested on: RXF 393 renal
[55] = tested on: NCI-H226 lung
[56] = tested on: HCT-15 colon
[57] = tested on: UO-31 renal
[58] = tested on: NCI-H522 lung

Measured: TGI

O=C(C(=NC12CC3CC(CC(C3)C1)C2)NNc1ccc([N+](=O)[O-])cc1[N+](=O)[O-])C(Br)C(=O)c1ccccc1 (stereo unspecified)
6.66 µM: [39]
9.87 µM: [43]
6.28 µM: [24]
2.5 µM: [19]
4.23 µM: [18]
6.25 µM: [44]
8.78 µM: [16]
6.38 µM: [14]
> 10 µM: [1] | [2] | [3] | [4] | [6] | [8] | [9] | [10] | [11] | [12] | [13] | [17] | [20] | [21] | [22] | [25] | [26] | [28] | [29] | [30] | [34] | [36] | [37] | [38] | [40] | [41] | [46] | [47] | [48] | [49] | [52] | [56] | [57]
9.72 µM: [23]
9.29 µM: [51]
9.04 µM: [33]
9.64 µM: [31]
5.57 µM: [7]
6.96 µM: [32]
8.31 µM: [54] | [55]
8.73 µM: [27]
6.84 µM: [42] | [53]
8.83 µM: [35]
8.4 µM: [15]
7.67 µM: [45]
6.13 µM: [5]
7.38 µM: [50]

C[C@]12CC(c3ccccc3O1)C(C(N)=O)C(=O)N2 (stereo partly specified)
> 100 µM: [1] | [3] | [4] | [5] | [6] | [7] | [8] | [9] | [10] | [11] | [12] | [13] | [14] | [15] | [16] | [17] | [18] | [19] | [20] | [21] | [22] | [23] | [24] | [25] | [26] | [28] | [29] | [30] | [31] | [32] | [33] | [34] | [35] | [36] | [37] | [38] | [39] | [40] | [41] | [42] | [43] | [44] | [45] | [46] | [48] | [49] | [50] | [51] | [52] | [53] | [54] | [58] | [55] | [56]

COc1cc2c(cc1OC)C1C(O)C(OC)C(Br)C3(Br)CCN(C2)C13 (stereo unspecified)
> 100 µM: [1] | [2] | [3] | [4] | [5] | [6] | [7] | [8] | [9] | [10] | [11] | [12] | [13] | [14] | [15] | [16] | [17] | [18] | [19] | [20] | [21] | [22] | [23] | [24] | [25] | [26] | [27] | [29] | [30] | [31] | [32] | [33] | [34] | [35] | [36] | [37] | [38] | [39] | [40] | [41] | [42] | [43] | [45] | [46] | [47] | [48] | [49] | [50] | [51] | [52] | [53] | [54] | [58] | [55] | [56] | [57]

O=[N+]([O-])C(=C1NCCN1)/C(Cl)=C(/Cl)N1CCOCC1
> 100 µM: [1] | [2] | [3] | [5] | [6] | [8] | [9] | [10] | [11] | [12] | [13] | [14] | [15] | [16] | [17] | [18] | [20] | [21] | [22] | [23] | [24] | [25] | [26] | [27] | [28] | [29] | [30] | [31] | [32] | [33] | [34] | [35] | [36] | [37] | [38] | [40] | [41] | [42] | [43] | [45] | [46] | [48] | [49] | [50] | [51] | [52] | [53] | [55] | [56] | [57]

CC(NC(=O)C(C)C(=O)Nc1ccc(C(F)(F)F)cc1)C(N)=O (stereo unspecified)
> 100 µM: [1] | [2] | [3] | [4] | [5] | [6] | [7] | [8] | [9] | [10] | [11] | [13] | [14] | [15] | [16] | [18] | [19] | [20] | [21] | [22] | [24] | [25] | [26] | [27] | [28] | [29] | [31] | [33] | [34] | [36] | [37] | [38] | [39] | [40] | [41] | [42] | [43] | [45] | [46] | [48] | [49] | [50] | [51] | [52] | [54] | [58] | [55] | [56] | [57]
